From patent US8008007B2, “S-adenosyl-L-methionine analogs with extended activated groups for transfer by methyltransferases” (RWTH Aachen, priority 2005, dated 2011)

Experiments:
M.HhaI-Q82A = target: T1, M.HhaI-Q82A (Haemophilus parahaemolyticus, UniProt P05102, Q82A); assay: DNA protection assay with M.HhaI variant Q82A on phage lambda DNA; assay type: biochemical; details: 1.16 μg phage lambda DNA, cofactor 300 μM, 37° C. for 4 h, then R.Hin6I; pH 7.4 (pH 6.0 for cofactor 6)
T1 construct: made in house
T1 sequence (P05102 whole entry Q82A): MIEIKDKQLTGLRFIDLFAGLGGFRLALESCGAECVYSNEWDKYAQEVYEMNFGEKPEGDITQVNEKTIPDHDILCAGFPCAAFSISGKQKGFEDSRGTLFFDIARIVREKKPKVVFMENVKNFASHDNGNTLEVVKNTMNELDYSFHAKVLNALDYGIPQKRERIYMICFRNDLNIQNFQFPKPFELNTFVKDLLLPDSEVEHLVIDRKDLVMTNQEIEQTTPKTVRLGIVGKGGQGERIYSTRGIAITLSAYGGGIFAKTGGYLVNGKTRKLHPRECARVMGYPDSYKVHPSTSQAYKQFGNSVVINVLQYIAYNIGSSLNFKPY
Description: (§1) Transfer kinetics of the activated ethyl (—CH2CH3), propyl (—CH2CH2CH3), prop-2-enyl (—CH2CH═CH2), prop-2-ynyl (—CH2C≡CH), but-2-ynyl (—CH2C≡CCH3), pent-2-ynyl (—CH2C≡CCH2CH3) and benzyl group (—CH2C6H5) from cofactors 3-9 by the DNA adenine-N6 methyltransferase M.TaqI and its variant V21 G, the DNA cytosine-C5 methyltransferase M.HhaI and its variant Q82A, the DNA cytosine-N4 methyltransferase M.BcnIB and the DNA cytosine-C5 methyltransferase M.SssI variant Q142A to phage lambda DNA (48502 base pairs) were investigated using a DNA protection assay. This assay makes use of the fact that DNA methyltransferase-catalyzed modifications of nucleobases within the recognition sequences of restriction endonucleases can protect the DNA against fragmentation by these enzymes. […] Unmodified DNA containing 5′-TCGA-3′ recognition sequences is readily fragmentated by R.TaqI. After DNA modification by M.TaqI in the presence of a cofactor with an activated group Z—R modified 5′-TCGA^Z—R-3′ sequences are formed and, as a result, R.TaqI is unable to fragment the modified DNA. Occurrence of fragmentation is then analyzed by agarose gel electrophoresis.
(§2) By varying the amounts of DNA methyltransferase, this assay is used to investigate the enzymatic activities of the different DNA methyltransferases with cofactors 3-9 and compare them to the enzymatic activities with the natural cofactor 1. The minimal amount of DNA methyltransferase needed to fully protect 1 μg of phage lambda DNA against restriction endonuclease fragmentation under the given experimental conditions is defined as one enzyme unit (u).
(§3) Afterwards, the reactions were stopped by heating to 80° C. for 10 min. […] Parallel control experiments were performed with phage lambda DNA in the absence of M.HhaI and in the presence of M.HhaI (278 ng).
The DNA protection assay with the M.HhaI variant Q82A (see Example 2B) was performed as described for the wild type enzyme (Example 3B.1).

M.SssI-Q142A = target: T2, M.SssI-Q142A (Spiroplasma monobiae, UniProt P15840, Q142A); assay: DNA protection assay with M.SssI variant Q142A on phage lambda DNA; assay type: biochemical; details: 1 μg phage lambda DNA, cofactor 300 μM, 37° C. for 4 h, then R.BstUI
T2 construct: made in house
T2 sequence (P15840 whole entry Q142A): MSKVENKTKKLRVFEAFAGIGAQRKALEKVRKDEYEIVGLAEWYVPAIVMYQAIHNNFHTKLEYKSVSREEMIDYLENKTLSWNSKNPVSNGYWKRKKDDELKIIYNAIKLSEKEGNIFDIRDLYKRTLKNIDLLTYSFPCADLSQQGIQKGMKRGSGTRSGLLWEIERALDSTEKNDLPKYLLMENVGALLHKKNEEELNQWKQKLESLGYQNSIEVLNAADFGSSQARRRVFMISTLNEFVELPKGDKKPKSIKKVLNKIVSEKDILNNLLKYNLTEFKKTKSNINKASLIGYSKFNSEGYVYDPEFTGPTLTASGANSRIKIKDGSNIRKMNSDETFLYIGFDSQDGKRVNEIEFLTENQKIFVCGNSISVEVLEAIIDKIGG
Description: as §1
By varying the amounts of DNA methyltransferase, this assay is used to investigate the enzymatic activities of the different DNA methyltransferases with cofactors 3-9 and compare them to the enzymatic activities with the natural cofactor 1. […]
Two fold serial dilutions (20 μL) of M.SssI-Q142A (starting with 3300 ng, 73 pmol) in buffer (10 mM Tris hydrochloride, 50 mM sodium chloride, 1 mM dithiothreitol, pH 7.9), phage lambda DNA (1 μg, 31.3 fmol, 3113 5′-CG-3′ recognition sequences, […] recognition sequences, MBI Fermentas) and the natural cofactor 1 (300 μM) or cofactor analogs 5 and 7 (300 μM) were incubated at 37° C. for 4 h. […] Loading buffer (10 μL, 0.25% bromphenol blue, 30% glycerol) was added to each sample, and aliquots (15 μL) were analyzed for the degree of protection by agarose gel (1%) electrophoresis.

M.HhaI = target: T3, M.HhaI (Haemophilus parahaemolyticus, UniProt P05102); assay: DNA protection assay with M.HhaI (wild-type) on phage lambda DNA; assay type: biochemical; details: 1.16 μg phage lambda DNA, cofactor 300 μM, 37° C. for 4 h, then R.Hin6I; pH 7.4 (pH 6.0 for cofactor 6)
T3 construct: made in house
T3 sequence (P05102 whole entry): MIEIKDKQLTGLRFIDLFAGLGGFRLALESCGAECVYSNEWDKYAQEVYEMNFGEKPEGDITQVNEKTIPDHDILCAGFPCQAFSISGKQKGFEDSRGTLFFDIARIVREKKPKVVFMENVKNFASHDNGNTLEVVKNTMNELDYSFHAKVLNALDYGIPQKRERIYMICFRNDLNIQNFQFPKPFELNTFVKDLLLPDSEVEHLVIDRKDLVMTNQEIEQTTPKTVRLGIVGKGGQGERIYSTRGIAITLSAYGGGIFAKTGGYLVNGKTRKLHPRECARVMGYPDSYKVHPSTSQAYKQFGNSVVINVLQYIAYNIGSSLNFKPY
Description: as §1, §2, §3

M.HhaI-Q82A/N304A [1] = target: T4, M.HhaI-Q82A/N304A (Haemophilus parahaemolyticus, UniProt P05102, N304A/Q82A); assay: DNA protection assay with M.HhaI variant Q82A/N304A on phage lambda DNA; assay type: biochemical; details: 1.16 μg phage lambda DNA, cofactor 300 μM, 37° C. for 1 h, enzyme from 1100 ng
T4 construct: made in house
T4 sequence (P05102 whole entry Q82A/N304A): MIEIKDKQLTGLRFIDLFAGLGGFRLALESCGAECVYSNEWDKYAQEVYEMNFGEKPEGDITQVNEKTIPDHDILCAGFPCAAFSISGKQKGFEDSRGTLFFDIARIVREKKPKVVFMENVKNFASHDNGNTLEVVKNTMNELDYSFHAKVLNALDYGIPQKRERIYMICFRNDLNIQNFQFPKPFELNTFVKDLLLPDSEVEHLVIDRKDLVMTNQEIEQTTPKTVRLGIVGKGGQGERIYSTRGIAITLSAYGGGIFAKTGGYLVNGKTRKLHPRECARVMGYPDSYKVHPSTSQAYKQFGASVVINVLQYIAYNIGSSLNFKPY
Description: Afterwards, the reactions were stopped by heating to 80° C. for 10 min. […] Parallel control experiments were performed with phage lambda DNA in the absence of M.HhaI-Q82A/N304A and in the presence of M.HhaI-Q82A/N304A (1100 ng).

M.HhaI-Q82A/N304A [2] = target: T4, M.HhaI-Q82A/N304A; assay: Modification of cytosine-C5 in duplex oligodeoxynucleotide III.IV by M.HhaI-Q82A/N304A, nucleoside analysis by HPLC/ESI-MS; assay type: biochemical; details: duplex III.IV 10 μM, cofactor 300 μM, enzyme 12.5 μM, 37° C. over night
Description: After enzymatic transfer the duplex oligodeoxy-nucleotides were enzymatically fragmented and the resulting modified nucleosides were analyzed by reversed-phase HPLC coupled with ESI-MS.
Therefore, the codon for N304 was changed to a codon for alanine by standard Megaprimer PCR mutagenesis (Sambrook and Russell, (2001) Cold Spring Harbor Laboratory Press, 13.31-13.35) and the fragment containing this mutation was cloned into the plasmid containing the Q82A mutation (Example 2B, Example 3B.2. The correct DNA sequence of the complete gene was verified by DNA sequencing. Expression and purification of the Q82A/N304A variant was performed as described for the wild-type enzyme (Kumar et al., (1992) Biochemistry 31, 8648-8653; Klimasauskas et al., (1998) EMBO J. 17, 317-324). The presence of the amino acid substitution was verified by mass spectrometric analysis of purified M.HhaI-Q82A/N304A.
The duplex oligodeoxynucleotide III.IV (compare Scheme 6, Example 2B) was produced by mixing equal molar amounts (2.5 nmol) of complementary single-stranded oligodeoxynucleotide III (5′-[…] CTAT-3′) (SEQ ID NO. 3) and IV (5′-[…]-3′) (SEQ. ID NO. 4) in water, heating at 85° C. for 5 min and slow cooling to room temperature. […] The solution was heated to 80° C. for 10 min, supplemented with Proteinase K and incubated at 55° C. for 2 h. […]

pBR322 plasmid DNA = details: modification with M.TaqI or M.HhaI-Q82A/N304A, cofactor 300 μM, 4 h

Compound	specific activity of M.HhaI-Q82A with the cofactor (M.HhaI-Q82A)	specific activity of M.SssI-Q142A with the cofactor (M.SssI-Q142A)	specific activity of M.HhaI with the cofactor (M.HhaI)	protection of phage lambda DNA against R.Hin6I fragmentation (M.HhaI-Q82A/N304A [1])	cofactor function for M.HhaI-Q82A/N304A (transfer of group Z-R to cytosine-C5) (M.HhaI-Q82A/N304A [2])	two-step labeling of amino-modified pBR322 DNA with fluorescein N-hydroxysuccinimidyl ester (pBR322 plasmid DNA)
CC#CC[S+](CCC(N)C(=O)O)CC1OC(n2cnc3c(N)ncnc32)C(O)C1O (mixture of isomers) [Cofactor 7]	58 u/μg	0.6 u/μg	29 u/μg			
CC[S+](CCC(N)C(=O)O)CC1OC(n2cnc3c(N)ncnc32)C(O)C1O (stereo not drawn) [Cofactor 3]	7 u/μg					
CCC[S+](CCC(N)C(=O)O)CC1OC(n2cnc3c(N)ncnc32)C(O)C1O (stereo not drawn) [Cofactor 4]	0 u/μg		0 u/μg			
C=CC[S+](CCC(N)C(=O)O)CC1OC(n2cnc3c(N)ncnc32)C(O)C1O (stereo not drawn) [Cofactor 5]	29 u/μg	1.2 u/μg	7 u/μg			
NCCCC(=O)NCC#CC[S+](CCC(N)C(=O)O)CC1OC(n2cnc3c(N)ncnc32)C(O)C1O (stereo not drawn) [Cofactor 10]				almost protected phage lambda DNA	functions as a cofactor	labeling is sequence-specific
